Laboratory results: ChEMBL document CHEMBL1144591, “Synthesis and cytotoxicity of some new eriocalyxin B derivatives” (Eur J Med Chem, 2007)
In brackets after ≈: the same amount, converted by molar mass.

Experiments:
Type in all cases: functional, cell-based
[1] = Cytotoxicity against human OVCA2780 cells after 48 hrs by MTT colorimetric assay; conditions: A2780, 48 h
K562 = assay: Cytotoxicity against human K562 cells after 48 hrs by MTT colorimetric assay; conditions: K562, 48 h
A549 = assay: Cytotoxicity against human A549 cells after 48 hrs by MTT colorimetric assay; conditions: A549, 48 h
DU-145 = assay: Cytotoxicity against human DU145 cells after 48 hrs by MTT colorimetric assay; conditions: DU-145, 48 h
MCF7 = assay: Cytotoxicity against human MCF7 cells after 48 hrs by MTT colorimetric assay; conditions: MCF7, 48 h

| SMILES | IC50 [1] [µg/mL] | IC50 (K562) [µg/mL] | IC50 (A549) [µg/mL] | IC50 (DU-145) [µg/mL] | IC50 (MCF7) [µg/mL] |
| --- | --- | --- | --- | --- | --- |
| C[C@H]1C(=O)[C@]23C[C@H]1CC[C@H]2[C@@]12CO[C@@]3(O)[C@@H](O)[C@@H]1C(C)(C)CCC2=O | > 200 | > 100 | > 100 | > 200 | > 200 |
| C=C1C(=O)[C@]23C[C@H]1CC[C@H]2[C@@]12CO[C@@]3(O)[C@@H](OC(C)=O)[C@@H]1C(C)(C)C=CC2=O | 11.9 (≈ 30.9 µM) | 25 (≈ 64.7 µM) | 31 (≈ 80.2 µM) | 80.6 (≈ 209 µM) | 20.1 (≈ 51.9 µM) |
| C=C1C(=O)[C@]23C[C@H]1CC[C@H]2[C@@]12CO[C@@]3(O)[C@@H](OC(=O)CBr)[C@@H]1C(C)(C)C=CC2=O | 2.06 (≈ 4.43 µM) | 1.5 (≈ 3.22 µM) | 4.86 (≈ 10.4 µM) | 4.52 (≈ 9.71 µM) | 0.85 (≈ 1.83 µM) |
| C=C1C(=O)[C@]23C[C@H]1CC[C@H]2[C@]1(COC(C)=O)C(=O)C=CC(C)(C)[C@H]1[C@H](OC(C)=O)C3=O | 9.71 (≈ 22.7 µM) | 28.1 (≈ 65.6 µM) | 61.8 (≈ 144 µM) | 17.9 (≈ 41.8 µM) | 24.6 (≈ 57.4 µM) |
| C=C1C(=O)[C@]23C[C@H]1CC[C@H]2[C@]12CO[C@@H](CC1=O)C(C)(C)[C@H]2[C@H](OC(C)=O)C3=O | 11.3 (≈ 29.2 µM) | 19.3 (≈ 49.9 µM) | 10.1 (≈ 26.1 µM) | 31.9 (≈ 82.5 µM) | 36.7 (≈ 94.9 µM) |
| C=C1C(=O)[C@]23C[C@H]1CC[C@H]2[C@]12CO[C@@H](CC1=O)C(C)(C)[C@H]2[C@H](OC(=O)CBr)C3=O | 14.9 (≈ 32.1 µM) | 4.54 (≈ 9.76 µM) | 10.9 (≈ 23.4 µM) | 26.6 (≈ 57.1 µM) | 67.1 (≈ 144 µM) |
| C=C1C(=O)[C@]23C[C@H]1CC[C@H]2[C@]12CO[C@@H](CC1=O)C(C)(C)[C@H]2[C@H](OC(=O)CCCl)C3=O | 10.5 (≈ 24.1 µM) | 8.88 (≈ 20.4 µM) | 20.3 (≈ 46.6 µM) | 51 (≈ 117 µM) | 22.7 (≈ 52.1 µM) |
| C=C(C(=O)O)[C@@H]1CC[C@@H]2[C@@H](C1)C(=O)C(O)=C1C(C)(C)[C@@H]3CC(=O)[C@]12CO3 | > 200 | > 200 | > 200 | > 200 | > 200 |
| C=C1C(=O)[C@]23C[C@H]1CC[C@H]2[C@]1(COC3=O)C(=O)C=CC(C)(C)[C@H]1C=O | 20.7 (≈ 60.3 µM) | 0.27 (≈ 0.789 µM) | 2.26 (≈ 6.6 µM) | 47.4 (≈ 138 µM) | 0.257 (≈ 0.751 µM) |
| C=C1[C@@H]2CC[C@H]3[C@@]45CO[C@@](O)([C@@H](O)[C@@H]4C(C)(C)C=CC5=O)[C@]3(C2)[C@@H]1O | 52.8 (≈ 152 µM) | 33.2 (≈ 96 µM) | 15.3 (≈ 44.1 µM) | > 100 | 83.6 (≈ 241 µM) |
| C=C1C(=O)[C@]23C[C@H]1CC[C@H]2[C@@]12CO[C@@]3(OC(C)=O)[C@@H](O)[C@@H]1C(C)(C)C=CC2=O | 13.1 (≈ 34 µM) | 7.23 (≈ 18.7 µM) | 38.9 (≈ 101 µM) | 74.7 (≈ 193 µM) | > 100 |
| C=C1C(=O)[C@]23C[C@H]1CC[C@H]2[C@@]12CO[C@@]3(O)C(=O)[C@@H]1C(C)(C)C=CC2=O | 7.28 (≈ 21.3 µM) | 4.94 (≈ 14.4 µM) | 33.2 (≈ 96.9 µM) | 12 (≈ 35 µM) | 59.6 (≈ 174 µM) |
| C=C1C(=O)[C@]23C[C@H]1CC[C@H]2[C@@]12CO[C@@]3(O)[C@@H](O)[C@@H]1C(C)(C)C=CC2=O | 1.8 (≈ 5.23 µM) | 1.32 (≈ 3.83 µM) | 2.49 (≈ 7.23 µM) | 1.34 (≈ 3.89 µM) | 0.15 (≈ 0.436 µM) |
| C=C1[C@@H]2CC[C@H]3[C@@]45CO[C@@](O)([C@@H](O)[C@@H]4C(C)(C)C=C[C@@H]5O)[C@]3(C2)[C@@H]1O | > 200 | > 100 | > 100 | > 100 | > 100 |
| C=CC(=O)O[C@H]1[C@@H]2C(C)(C)C=CC(=O)[C@]23CO[C@]1(O)[C@@]12C[C@@H](CC[C@@H]31)C(=C)C2=O | 4.33 (≈ 10.9 µM) | 5.05 (≈ 12.7 µM) | 33 (≈ 82.8 µM) | 41.2 (≈ 103 µM) | 6.56 (≈ 16.5 µM) |
| C=C1C(=O)[C@]23C[C@H]1CC[C@H]2[C@]1(COC3=O)C(=O)C=CC(C)(C)[C@H]1C(=O)O | > 200 | > 100 | > 100 | > 100 | > 100 |
| C=C1C(=O)[C@]23C[C@H]1CC[C@H]2[C@]12CO[C@@H](CC1=O)C(C)(C)[C@H]2[C@H](OC(=O)CCCCl)C3=O | 42.6 (≈ 95 µM) | > 100 | 68.1 (≈ 152 µM) | > 100 | > 100 |
| C=C(C(=O)O)[C@@H]1CC[C@@H]2[C@@H](C1)C(=O)[C@@H](O)[C@@H]1C(C)(C)[C@@H]3CC(=O)[C@@]21CO3 | > 200 | > 100 | > 200 | > 200 | > 200 |
| C=C1C(=O)[C@]23C[C@H]1CC[C@H]2[C@]12CO[C@@H](CC1=O)C(C)(C)[C@H]2[C@H](O)C3=O | 16.9 (≈ 49.2 µM) | 3.73 (≈ 10.8 µM) | 27.2 (≈ 79 µM) | 33.2 (≈ 96.3 µM) | 8.87 (≈ 25.8 µM) |
| C=C1[C@@H]2CC[C@H]3[C@@]45CO[C@@](O)([C@@H](O)[C@@H]4C(C)(C)CC[C@@H]5O)[C@]3(C2)[C@@H]1O | > 200 | > 100 | > 100 | > 100 | > 100 |
